Results: ChEMBL document CHEMBL3124906 (J Nat Prod, 2014)
Active and inactive are the calls of the source. No cut-off for these calls is given here.

Experiments:
Influenza A virus [1] = assay: Antiviral activity against Influenza A virus (A/Hong Kong/1/1968(H3N2)) infected in MDCK cells assessed as inhibition of virus-induced cytopathic effect at 50 uM after 48 hrs; type: functional; conditions: for inhibition at 50 µM: Influenza A virus, MDCK, 48 h
Influenza A virus [2] = assay: Antiviral activity against Influenza A virus J/8178/09 infected in MDCK cells assessed as inhibition of virus-induced cytopathic effect at 50 uM after 48 hrs; type: functional; conditions: for inhibition at 50 µM: Influenza A virus, J/8178/09, MDCK, 48 h
[3] = Cytotoxicity against MDCK cells after 72 hrs; type: cell-based, Canis lupus familiaris; conditions: dog
[4] = Inhibition of Clostridium perfringens neuraminidase by chemiluminescence based assay
[5] = Induction of fluorescence quenching at 100 uM relative to 4-methylumbelliferone; type: physicochemical
[6] = Inhibition of Clostridium perfringens neuraminidase by fluorescence based assay
[7] = Induction of fluorescence at 100 uM relative to 4-methylumbelliferone; type: physicochemical

Structure (SMILES): O=C1C[C@@H](c2ccc(O[C@@H]3O[C@H](CO)[C@@H](O)[C@H](O)[C@H]3O[C@H]3OC[C@@](O)(COC(=O)c4c[nH]c5ccccc45)[C@@H]3O)cc2)Oc2cc(O)ccc21
- inhibition (Influenza A virus [1]): inactive
- inhibition (Influenza A virus [2]): inactive

Structure (SMILES): O=C1C[C@@H](c2ccc(O[C@@H]3O[C@H](CO)[C@@H](O)[C@H](O)[C@H]3O)cc2)Oc2cc(O)ccc21 [LIQUIRITIN]
- inhibition (Influenza A virus [1]): inactive
- CC50 at 72 h [3]: > 239 µM
- inhibition (Influenza A virus [2]): inactive

Structure (SMILES): CC1(C)C=Cc2c(ccc3c2OCC(O)C3)O1 (configuration not stated)
- inhibition (Influenza A virus [1]): inactive
- IC50 [4]: 0.64 µM
- Activity [5]: 15%
- IC50 [6]: 2.88 µM
- CC50 at 72 h [3]: 336 µM
- Activity [7]: 0%
- inhibition at 50 µM (Influenza A virus [2]): 36.1%

Structure (SMILES): CC(C)=CCc1c(O)ccc(C(=O)/C=C/c2cc(O)c3c(c2)C=CC(C)(C)O3)c1O
- inhibition (INH) (Influenza A virus [1]): 48.1%
- CC50 at 72 h [3]: 135 µM
- inhibition (INH) (Influenza A virus [2]): 29.7%

Structure (SMILES): O=C1C[C@@H](c2ccc(O)cc2)Oc2cc(O)ccc21 [LIQUIRTIGENIN]
- inhibition (Influenza A virus [1]): inactive
- CC50 at 72 h [3]: 301 µM
- inhibition (Influenza A virus [2]): inactive

Structure (SMILES): CC1(C)C=Cc2c(ccc(-c3coc4cc(O)ccc4c3=O)c2O)O1 [GLABRONE]
- inhibition at 50 µM (Influenza A virus [1]): 24.2%
- IC50 [4]: 0.07 µM
- Activity [5]: 28.3%
- IC50 [6]: 11.7 µM
- CC50 at 72 h [3]: 90.8 µM
- Activity [7]: 0.68%

Structure (SMILES): O=C(/C=C/c1ccc(O)cc1)OC[C@]1(O)CO[C@H](O[C@H]2[C@H](Oc3ccc(/C=C/C(=O)c4ccc(O)cc4O)cc3)O[C@H](CO)[C@@H](O)[C@@H]2O)[C@H]1O
- inhibition (Influenza A virus [1]): inactive
- inhibition (Influenza A virus [2]): inactive

Structure (SMILES): COc1ccc(-c2coc3cc(O)ccc3c2=O)cc1 [FORMONONETIN]
- IC50 [4]: 0.34 µM
- Activity [5]: -12.4%
- IC50 [6]: 13.6 µM
- CC50 at 72 h [3]: 123 µM
- Activity [7]: 15.4%

Structure (SMILES): O=C1C[C@@H](c2ccc(O)cc2)Oc2cc(O[C@@H]3O[C@H](CO)[C@@H](O)[C@H](O)[C@H]3O)cc(O)c21 [PRUNIN]
- inhibition (Influenza A virus [1]): inactive
- CC50 at 72 h [3]: 126 µM
- inhibition (INH) (Influenza A virus [2]): 49.6%

Structure (SMILES): CCOC(=O)C1=C[C@@H](OC(CC)CC)[C@H](NC(C)=O)[C@@H](N)C1 [OSELTAMIVIR]
- IC50 [4]: 110 µM
- Activity [5]: 12.8%
- IC50 [6]: 125 µM
- Activity [7]: 0.05%

Structure (SMILES): CC1(C)C=Cc2c(ccc([C@@H]3COc4c(ccc5c4C=CC(C)(C)O5)C3)c2O)O1 [HISPAGLABRIDIN B]
- inhibition at 50 µM (Influenza A virus [1]): 31.2%
- IC50 [4]: 0.17 µM
- Activity [5]: 15.1%
- IC50 [6]: 4.23 µM
- CC50 at 72 h [3]: 39.2 µM
- Activity [7]: 0.05%
- inhibition at 50 µM (Influenza A virus [2]): 48.4%

Structure (SMILES): CC(C)=CCc1cc([C@@H]2CC(=O)c3ccc(O)c(CC=C(C)C)c3O2)ccc1O [GLABROL]
- inhibition (Influenza A virus [1]): inactive
- IC50 [4]: 0.13 µM
- Activity [5]: 37.4%
- IC50 [6]: 2.17 µM
- CC50 at 72 h [3]: 25.4 µM
- Activity [7]: 1.18%
- inhibition (Influenza A virus [2]): inactive
